Where “and” joins values, the source holds several entries; their conditions need not be identical. Identical values can stand only once.
Legend:
PN-allergic C3H/HeJ mice = assay: Peanut-allergic mouse models (Model #1 systemic i.p. sensitization, early treatment; Model #2 oral sensitization, late treatment) with oral PN challenge; format: in vivo; conditions: for Time after stopping treatment at which protection from anaphylaxis persisted: model #1
[1] = test system: splenocytes (SPCs) and mesenteric lymph node (MLN) cells; assay: Cytokines in CPE-stimulated splenocyte and MLN cell cultures from treated mice (Model #2), ELISA; format: in vivo, C3H/HeJ mice; conditions: model #2, CPE stimulation, vs sham
Experimental: Mice were sacrificed at the end of each experiment. The splenocytes (SPCs) and mesenteric lymph node (MLN) cells of each mouse was collected as previously described ([37]). Cells (4 x10^6/well/mL) were cultured in 24 well plates in the presence or absence of CPE (200 µg/mL). After 72 hrs of incubation at 37°C under 5% CO2, supernatants were collected. Cytokine levels were measured using ELISA kits in triplicate according to the manufacturer’s instructions (BD Biosciences, San Jose, CA and R&D systems, Minneapolis, MN).

IL-4 promoter = IL-4 promoter DNA methylation (CpG-393) in splenocytes of treated mice, bisulfite pyrosequencing; format: in vivo, C3H/HeJ mice; conditions: model #2, vs sham
Description: Genomic DNA was isolated from mouse splenocytes collected from orally sensitized mouse model#2 using Qiagen mini DNA/RNA extraction kit (Qiagen, Valencia, CA). Isolated DNA was bisulfite-modified using an Epitect plus DNA Bisulfite kit (Qiagen) following the manufacturer’s instructions. Bisulfite converted DNA was then amplified with the IL-4 primers listed below by PCR. The PCR products were subsequently purified and pyrosequenced using sequencing primers on a Pyromark Q24 system (Qiagen) as described previously ([38]). Primers for IL-4; Fwd: […]; Rev-Biotin-[…]. Sequencing (CpG -393) […].

U266 cells = assay: RT-PCR of candidate genes in XPP-treated U266 cells; format: cell-based, human
Experimental: RT-PCR analysis of genes related to Cell cycle, B cell differentiation, and IgE production was performed by QuantStudio 5 real-time PCR system (Thermo Fisher, Waltham, MA). For each PCR reaction, 12.5 μL maxima SYBR Green/ROX qPCR Master Mix 2x (Thermo Fisher, Waltham, MA) was mixed with 1.8 μL of 0.3 μM target primers and 300 ng of template DNA to make the total volume as 25 μL. The PCR procedure was set as […] 25°C for 5 min, 42°C for 60 min and 70°C for 15 min. GAPDH was used as the housekeeping gene. The Delta Ct values for each gene were calculated by normalizing the Ct values with the housekeeping gene. The relative fold change in mRNA expression between different groups was calculated and expressed as 2^−ΔΔCT. The primer sequence used are shown in Supplementary Table 1 .

[2] = model #1, 7 weeks after stopping therapy
[3] = orally sensitized mouse model #2

## O=C1c2ccccc2C(=O)c2c(O)cc(O)cc21 [XPP, xanthopurpurin]
PN-allergic C3H/HeJ mice; both models, 30 minutes after challenge, p < 0.001 vs. Sham
  Body temperatures after PN challenge: normal body temperatures
PN-allergic C3H/HeJ mice; both models, oral XPP 400 µg/day
  Reduction of PN-specific IgE levels at challenge vs. sham: > 80% and 75%
PN-allergic C3H/HeJ mice; both models, p < 0.001
  Plasma histamine levels after PN challenge: essentially normal plasma histamine levels
PN-allergic C3H/HeJ mice; both models, score 0-5, p <0.001 vs. Sham
  Symptom scores following PN challenge: 0
PN-allergic C3H/HeJ mice
  Time after stopping treatment at which protection from anaphylaxis persisted: 5 weeks
PN-allergic C3H/HeJ mice; [2]
  Body temperatures, sustained effect: increased
  PN-specific IgE levels, sustained effect: significantly reduced
  Symptom scores, sustained effect: significantly reduced
PN-allergic C3H/HeJ mice; listed as xanthopurpurin
  Time after stopping treatment at which protection from anaphylaxis persisted: 7 weeks
PN-allergic C3H/HeJ mice; [3]
  Fecal PN-specific IgA: did not reduce
  Serum PN-specific IgG1: did not reduce
  Serum PN-specific IgG2a: did not reduce
[1]; 72 hrs
  IL-4 level in MLN cultures: significantly inhibited IL-4 level
  IL-4 level in splenocyte cultures: significantly inhibited IL-4 level
[1]
  IFN-γ production in MLN cultures: no significant differences
  IFN-γ production in SPC cultures: no significant differences
  IL-10 production in MLN cultures: no significant differences
  IL-10 production in SPC cultures: no significant differences
IL-4 promoter
  Percentages of CpG methylation for CpG-393 of IL-4 promoter: showed an increase
U266 cells; XPP 20 μg/mL, p < 0.001
  CCND1 gene expression: significantly reduced
  IL6R gene expression: significantly reduced
  SCD1 gene expression: significantly reduced
U266 cells; XPP 20 μg/mL, p < 0.01
  DUSP4 gene expression: significantly increased
  PTPRC gene expression: significantly increased
U266 cells; increasing XPP concentration
  ETS1 gene expression: upregulation trend with the increasing concentration of XPP, but no significant value was observed

From article PMC10876879, “Sustained silencing peanut allergy by xanthopurpurin is associated with suppression of peripheral and bone marrow IgE-producing B cell” (Frontiers in Immunology, 2024)
